Data published in article PMC11571215, “Optimization of Antiproliferative Properties of Triimine Copper(II) Complexes” (Journal of Medicinal Chemistry, 2024).
Like-named read-outs stand apart in the source and are kept apart here. Blank lines part the entries; values can stand above or below the compound they belong to.

Columns and labels:
[1] = system: HCT116-DoxR cells (doxorubicin resistant colorectal carcinoma); assay: MTS cell viability assay, HCT116-DoxR 2D; type: cell-based, human; settings: for IC50: 48 h of exposure
Procedure: (§1) The antiproliferative effect of the Cu(II) complexes in tumor and healthy cell lines was assessed through the MTS assay, a colorimetric method that is widely used to evaluate cellular viability, specifically mitochondrial viability.[53],[54] Cellular viability was determined after 48 h exposure to a concentration range (0.1–50 μM) of Cu(II) complexes in three tumor cell lines. […] Additionally, the viability of healthy primary dermal fibroblasts was performed as a comparison of the complexes’ antiproliferative effects in normal cells.
(§2) Cellular viability assays were performed using HCT116, HCT116-DoxR, and A2780 cancer cell lines as well as normal human primary fibroblasts. Cells were seeded at a density of 0.75 × 10^5 cells/mL in 96-well plates and incubated at 37 °C with 5% (v/v) CO2 for 24 h. After this incubation period, the copper complexes were accurately weighed and immediately dissolved in 100% (v/v) dimethyl sulfoxide (DMSO). Subsequently, the complexes were diluted to the final concentration using a cell culture medium. The culture medium in each well was replaced with fresh medium containing varying concentrations of the complexes (ranging from 0.01 to 50 μM). Negative controls contained culture medium with 0.1% (v/v) DMSO, and positive controls contained 0.4 μM Dox.
(§3) After an additional 48 h of incubation under the same conditions, cellular viability was assessed using the CellTiter 96 Aqueous One Solution Cell Proliferation Assay kit (Promega, Madison, USA). Metabolically active cells contain mitochondrial dehydrogenases that can reduce 3-(4,5-dimethylthiazol-2-yl)-5-(3-carboxymethoxyphenyl)-2-(4-sulfophenyl)-2H-tetrazolium, the inner salt (MTS) to formazan. The absorbance of formazan, measured at 490 nm in a microplate reader (Tecan Infinite M200, Tecan, Männedorf, Switzerland), is directly proportional to the number of viable cells.[104]
(§4) The cell viability versus concentration graphics were analyzed using Prism 8 software (GraphPad) to determine the half-maximal inhibitory concentration (IC50) of each complex for the respective cell line. Additionally, the selective index (SI) for each complex was calculated by dividing the IC50 of human fibroblasts by the IC50 values of the tested cancer cell lines.

[2] = system: normal human primary dermal fibroblasts; assay: MTS cell viability assay, normal fibroblasts; type: cell-based; settings: 48 h of exposure
Procedure: as §1, §2
After an additional 48 h of incubation under the same conditions, cellular viability was assessed using the CellTiter 96 Aqueous One Solution Cell Proliferation Assay kit (Promega, Madison, USA). […] The absorbance of formazan, measured at 490 nm in a microplate reader (Tecan Infinite M200, Tecan, Männedorf, Switzerland), is directly proportional to the number of viable cells.[104]
as §4

[3] = system: HCT116 cells (colorectal carcinoma); assay: MTS cell viability assay, HCT116 2D; type: cell-based, human
Procedure: as §1, §2, §3, §4

[4] = system: A2780 cells (ovarian carcinoma); assay: MTS cell viability assay, A2780; type: cell-based, human
Procedure: as §1, §2, §3, §4

[5] = system: HCT116-DoxR cells (doxorubicin resistant colorectal carcinoma); parameters: method as in PMID 37311060; settings: previously determined; read-out: IC50 for the HCT116-DoxR cell line; cited from earlier work
HCT116-DoxR cells = assay: Autophagy induction (CYTO-ID green, flow cytometry); type: cell-based, human; settings: 48 h; complexes at IC50, Dox 6 μM, Cis 5 μM, rapamycin 1500 nM
Description: Furthermore, previous studies have shown that complexes containing terpyridine derivatives have the ability to trigger both apoptosis and autophagy cell death mechanisms in cancer cells simultaneously.[38] This convergence of death pathways may arise from an adaptive response of the heterogeneous tumor cell population.[38] In this context, understanding the mechanism by which cells lose viability in the presence of the two Cu(II) complexes with the simultaneous induction of apoptosis and autophagy becomes crucial. Autophagy is a highly conserved catabolic process crucial for maintaining cellular homeostasis but is also associated with type II programmed cell death.[75] It involves intracellular degradation through autophagolysosomes responsible for breaking down luminal content and enabling recycling of cellular components.[76],[77] The assessment of the complexes’ ability to induce autophagy was conducted using flow cytometry, employing the CYTO-ID green detection reagent. This probe emits green fluorescence, marking the autophagic vacuoles within the cell. Higher fluorescence indicates a greater proportion of autophagolysosomes.[78] Three positive controls were used: Dox, Cis, and rapamycin (1500 nM), whose concentration was previously optimized for the HCT116-DoxR cell line in the laboratory.[64] Rapamycin is known to induce autophagy through its mechanistic target, mTOR.
Cell death via autophagy was evaluated using the Autophagy Assay Kit (ab139484; Abcam, Cambridge, United Kingdom), according to the manufacturers’ instructions. HCT116-DoxR cells were seeded at a density of 1 × 10^5 cells/mL in 6-well plates for 24 h, under the same conditions described before. After this incubation period, the culture medium was replaced with a fresh medium containing the copper complexes under evaluation at their IC50 concentration. A 0.1% (v/v) DMSO solution was used as the negative (vehicle) control, and 6 μM Dox and 5 μM Cis were used as positive controls. The cells were incubated again for 48 h. Rapamycin (1500 nM) was also added as a positive control, and it was added 18 h before the end of the 48 h incubation. After this period, the supernatant was discarded, and each well was washed with PBS 1×. Subsequently, cells were detached using TrypLE Express and washed with phenol red-free DMEM medium containing 5% (v/v) FBS. Cells were incubated with Green Stain Solution in phenol red-free DMEM medium containing 5% (v/v) FBS for 30 min at RT. After this period, the samples were washed and then resuspended in Assay Buffer 1×. The samples were analyzed using an Attune Acoustic Focusing Flow Cytometer (Life Technologies, Carlsbad, USA), and the results were analyzed via the Attune Cytometric software.

[6] = system: HCT116 cells (colorectal carcinoma); parameters: method as in PMID 29688241; settings: previously published complex, cited from earlier work
[7] = system: A2780 cells (ovarian carcinoma); parameters: method as in PMID 29688241; settings: previously published complex, cited from earlier work
[8] = system: normal human primary dermal fibroblasts; parameters: method as in PMID 29688241; settings: 48 h; previously published complex; cited from earlier work
[9] = 48 h of exposure, MTS, relative IC50, mean + SEM
[10] = free ligands, at least two independent assays, read-out: IC50 of ligands HCT116-DoxR

IC50 ([1]; MTS, relative IC50, mean + SEM, read-out: IC50 HCT116-DoxR (2D)): 310 ± 10 nM
IC50 [3, 9]: 360 ± 40 nM
IC50 [4, 9]: 480 ± 80 nM
SMILES: COc1ccc2cc(-c3cc4[n+]5c(c3)-c3cccc[n+]3[Cu-3]5([Cl])([Cl])[n+]3ccccc3-4)ccc2c1 [Cu1d]
SI HCT116-DoxR ([1]; ratio IC50 fibroblasts / IC50 HCT116-DoxR): 20.7
IC50 [2]: 6420 ± 500 nM
SI HCT116 ([3]; ratio IC50 fibroblasts / IC50 HCT116): 17.8
SI A2780 ([4]; ratio IC50 fibroblasts / IC50 A2780): 13.4

IC50 [1, 10]: ~14600 nM
SMILES: COc1ccc2cc(-c3cc(-c4nccs4)nc(-c4nccs4)c3)ccc2c1 [L2d]

IC50 [1, 10]: 200 ± 50 nM
SMILES: COc1ccc2cc(-c3cc(-c4ccccn4)nc(-c4ccccn4)c3)ccc2c1 [L1d]

SMILES: CC(C)(C)OO [TBHP, Tert-butyl hydroperoxide]
IC50 [5]: 42000 nM

IC50 [1, 10]: > 50000 nM
SMILES: c1ccc2cc(-c3cc(-c4nccs4)nc(-c4nccs4)c3)ccc2c1 [L2b]

SMILES: CO[C@H]1C[C@@H]2CC[C@@H](C)[C@@](O)(O2)C(=O)C(=O)N2CCCC[C@H]2C(=O)O[C@H]([C@H](C)C[C@@H]2CC[C@@H](O)[C@H](OC)C2)CC(=O)[C@H](C)/C=C(\C)[C@@H](O)[C@@H](OC)C(=O)[C@H](C)C[C@H](C)/C=C/C=C/C=C/1C [rapamycin, Rapamycin]
increase in autophagic vesicles compared to 0.1% DMSO control (HCT116-DoxR cells): increase in green fluorescence intensity

IC50 [1, 10]: ~180 nM
SMILES: c1ccc(-c2cc(-c3cccc4ccccc34)cc(-c3ccccn3)n2)nc1 [L1a]

IC50 [1, 10]: ~11500 nM
SMILES: COc1ccc(-c2cc(-c3nccs3)nc(-c3nccs3)c2)c2ccccc12 [L2c]

IC50 [1, 10]: > 50000 nM
SMILES: c1ccc2c(-c3cc(-c4nccs4)nc(-c4nccs4)c3)cccc2c1 [L2a]

SMILES: COc1ccc(-c2cc(-c3ccccn3)nc(-c3ccccn3)c2)c2ccccc12.[Cl][Cu][Cl] [Cu1c]
IC50 ([6]; 48 h): 400 ± 60 nM
SI HCT116 ([6]; IC50 fibroblasts / IC50 HCT116): 82
IC50 ([7]; 48 h): 950 ± 50 nM
SI A2780 ([7]; IC50 fibroblasts / IC50 A2780): 34.5
IC50 [8]: 32780 ± 60 nM

IC50 [1, 10]: 240 ± 400 nM
SMILES: c1ccc(-c2cc(-c3ccc4ccccc4c3)cc(-c3ccccn3)n2)nc1 [L1b]
